Test results reported in patent USRE48842E1, “Pyrimido-pyrrolo-oxazine-dione compound inhibitors of the cystic fibrosis transmembrane conductance regulator protein and uses therefor” (The Regents of the University of California, priority 2011, dated 2021).
Where “and” joins values, the source holds several entries; their conditions need not be identical. Equal values may be shown once.

Assays:
human wildtype CFTR [1] = molecular target: T1, human wildtype CFTR (Homo sapiens, UniProt P13569); experiment: Short-circuit current analysis of CFTR inhibition in CFTR-expressing FRT cells; type: cell-based; design: expressed in transfected cells; host or cells: Fischer rat thyroid (FRT) epithelial cells on Snapwell inserts; conditions: for inhibition of short-circuit current: 100 nM
Method: Short-Circuit Current—Snapwell inserts containing CFTR-expressing FRT cells were mounted in an Ussing chamber. The hemichambers contained 5 mL of buffer containing 75 mM NaCl and 75 mM Na gluconate (apical) and 150 mM NaCl (basolateral) (pH 7.3), and the basolateral membrane was permeabilized with 250 μg/mL amphotericin B, as described (see, e.g., Sonawane et al., FASEB J 2006, supra). Short-circuit current was recorded continuously using a DVC-1000 voltage clamp (World Precision Instruments) using Ag/AgCl electrodes and 3 M KCl agar bridges.
Current was measured in CFTR-expressing FRT cells in which the basolateral membrane was permeabilized and in the presence of a transepithelial chloride concentration gradient, so that current is a quantitative linear measure of CFTR function. CFTR was activated by forskolin, followed by serial additions of increasing concentrations of test compounds.
CFTR inhibition potency was measured by short-circuit current analysis in FRT epithelial cells expressing human CFTR in presence of a transepithelial chloride gradient and in which the basolateral membrane was permeabilized with amphotericin B. Under these conditions short-circuit current is proportional to CFTR chloride conductance.

[2] = In vitro metabolism in hepatic microsomes (LC/MS); type: in vitro ADME, rat; conditions: in the presence of NADPH
Method: (§1) In Vitro Metabolism in Hepatic Microsomes—A compound of structure (I) was incubated for specified times at 37° C. with rat liver microsomes (e.g., 1 mg protein/ml; Sigma-Aldrich, St. Louis, Mo.) in potassium phosphate buffer (100 mM) containing NADPH (0 or 1 mM). The mixture was then chilled on ice, and 0.5 ml of ice-cold ethyl acetate was added. Samples were centrifuged for 15 min at 3,000 rpm, and the supernatant was evaporated to dryness under nitrogen. The residue was dissolved in 150 μl mobile phase (acetonitrile:water 3:1, containing 0.1% formic acid) for LC/MS analysis. Reverse-phase HPLC separations were carried out using a Waters C18 column (2.1×100 mm, […]) equipped with a solvent delivery system (Waters model 2690, Milford, Mass.). The solvent system consisted of a linear gradient from 5 to 95% acetonitrile run over 16 min (0.2 mL/min flow rate). Mass spectra were acquired on an Alliance HT 2790+ZQ mass spectrometer using negative ion detection.
as §1, with “Liquid Chromatography/Mass Spectrometry—Compounds (each at 5 μM) were” for “In Vitro Metabolism in Hepatic Microsomes—A compound of structure (I) was”, “(1” for “(e.g., 1”, “150” for “150 μl”, “detection, scanning from 150 to 1500 Da. The electrospray ion source parameters were as follows: capillary voltage 3.5 kV (positive ion mode), cone voltage 37 V, source temperature 120° C., desolvation temperature 250° C., cone gas flow 25 L/h, and dessolvation gas flow 350 L/h.” for “detection.”
PPQ-102 is a small-molecule inhibitor of CFTR chloride conductance with efficacy in preventing and reversing cyst formation in an organ culture model of PKD (see, e.g., Tradtrantip et al., J. Med. Chem. 2009, supra; Int'l Patent Appl. Publication No. WO 2011/019737). Preliminary analysis of the metabolic stability and aqueous solubility of PPQ-102, indicated poorer metabolic stability and lower water solubility (˜2 μM in albumin-free saline) than desired for optimal drugability. In vitro metabolic stability was determined by compound incubation with hepatic microsomes at 37° C. for specified times in the absence vs. presence of NADPH, following by LC/MS analysis. Shown in FIG. 6A is PPQ-102 disappearance in hepatic microsomes in the presence of NADPH, with ˜60% disappearance in 30 min.

human wildtype CFTR [3] = molecular target: T1, human wildtype CFTR; experiment: Fluorescence plate reader assay of CFTR inhibition (iodide influx); type: cell-based; design: expressed in transfected cells; host or cells: Fischer rat thyroid (FRT) cells; conditions: Determined by micro-plate reader assay; FRT cells co-expressing human wild type CFTR and YFP-H148Q
Method: Cell Culture and Plate Reader Assay of CFTR Inhibition—Fischer rat thyroid (FRT) cells co-expressing human wild type CFTR and the halide indicator YFP-H148Q were cultured in 96-well black-walled microplates (Corning Costar) at a density of 20,000 cells per well in Coon's modified F12 medium containing 10% fetal bovine serum, 2 mM L-glutamine, 100 U/mL penicillin and 100 μg/mL streptomycin. CFTR chloride conductance was assayed at 48 h after plating on a FluoStar fluorescence plate reader (BMG Lab Technologies) as described (see, e.g., Ma et al., J Clin Invest. 2002, supra). Each well was washed 3 times with PBS, leaving 60 μL PBS. Test compounds were added and incubated with the cells for 45 min. Then, 5 μL of a CFTR-activating cocktail (10 μM forskolin, 100 μM IBMX, 20 μM apigenin in PBS) was added. After 15 min, each well was assayed for iodide influx by recording fluorescence continuously (200 ms per point) for 2 s (baseline) and then for 10 s after rapid addition of 160 μL of isosmolar PBS in which 137 mM chloride was replaced by iodide. The initial rate of iodide influx was computed from fluorescence data by non-linear regression.
Initial testing of the compounds for the capability to inhibit CFTR was performed using a plate-reader assay in which iodide influx was measured in FRT cells co-expressing human wild type CFTR and the iodide-sensing yellow fluorescent protein YFP-H148Q/1152L. […] Table B below provides IC50 values for PPQ and BPO compounds.
The relative IC50 values obtained from the plate reader assay are useful for comparisons. Absolute IC50 values obtained from the plate-reader assay are approximate, generally underestimating compound potency because of assay non-linearities, pH-dependent YFP fluorescence, the use of iodide instead of chloride, and compound dilution at the start of the assay (see, e.g., Galietta et al., Am. J. Physiol. Cell Physiol. 281:C1734-42 (2001)).

[4] = short-circuit current, FRT cells expressing human CFTR, forskolin-stimulated, read-out: IC50 for inhibition of CFTR chloride conductance
[5] = Determined by short-circuit current assay, read-out: IC50 (μM)^B

T1 sequence (P13569 whole entry): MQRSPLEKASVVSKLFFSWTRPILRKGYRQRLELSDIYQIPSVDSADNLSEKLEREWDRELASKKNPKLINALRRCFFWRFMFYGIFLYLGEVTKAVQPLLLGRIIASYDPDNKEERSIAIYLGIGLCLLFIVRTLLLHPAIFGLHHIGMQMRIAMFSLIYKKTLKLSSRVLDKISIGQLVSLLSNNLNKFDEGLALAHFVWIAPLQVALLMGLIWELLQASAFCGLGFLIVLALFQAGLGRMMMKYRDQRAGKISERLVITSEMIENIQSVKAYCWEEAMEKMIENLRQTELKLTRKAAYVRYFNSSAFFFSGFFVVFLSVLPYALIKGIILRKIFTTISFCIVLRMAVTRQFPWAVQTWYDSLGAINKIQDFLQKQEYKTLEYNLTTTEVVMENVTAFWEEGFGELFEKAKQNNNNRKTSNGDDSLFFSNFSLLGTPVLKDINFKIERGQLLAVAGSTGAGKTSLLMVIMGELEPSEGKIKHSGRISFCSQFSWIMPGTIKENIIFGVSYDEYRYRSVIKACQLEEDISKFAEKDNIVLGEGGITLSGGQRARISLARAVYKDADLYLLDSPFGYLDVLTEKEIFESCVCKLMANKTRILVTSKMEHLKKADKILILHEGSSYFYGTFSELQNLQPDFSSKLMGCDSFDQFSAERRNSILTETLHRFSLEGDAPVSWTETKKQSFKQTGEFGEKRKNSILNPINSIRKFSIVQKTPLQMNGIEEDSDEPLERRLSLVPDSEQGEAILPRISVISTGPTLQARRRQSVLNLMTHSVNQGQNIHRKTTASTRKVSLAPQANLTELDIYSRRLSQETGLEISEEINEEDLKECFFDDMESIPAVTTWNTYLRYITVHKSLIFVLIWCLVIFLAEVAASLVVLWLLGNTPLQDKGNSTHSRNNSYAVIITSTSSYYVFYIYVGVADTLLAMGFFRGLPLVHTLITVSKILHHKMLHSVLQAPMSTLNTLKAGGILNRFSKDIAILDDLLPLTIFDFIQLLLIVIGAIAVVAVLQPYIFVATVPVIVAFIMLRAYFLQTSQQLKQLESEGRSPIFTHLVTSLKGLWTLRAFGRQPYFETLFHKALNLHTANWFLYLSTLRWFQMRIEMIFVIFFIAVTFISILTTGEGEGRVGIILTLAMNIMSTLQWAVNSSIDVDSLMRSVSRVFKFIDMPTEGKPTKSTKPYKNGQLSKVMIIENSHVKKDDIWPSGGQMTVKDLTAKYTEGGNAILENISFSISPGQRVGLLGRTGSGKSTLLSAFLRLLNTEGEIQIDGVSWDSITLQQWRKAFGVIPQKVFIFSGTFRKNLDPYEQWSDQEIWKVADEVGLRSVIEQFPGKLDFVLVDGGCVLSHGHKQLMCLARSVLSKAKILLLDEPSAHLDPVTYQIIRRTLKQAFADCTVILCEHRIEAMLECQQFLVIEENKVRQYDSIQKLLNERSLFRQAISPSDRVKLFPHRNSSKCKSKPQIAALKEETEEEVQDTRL

Row | SMILES | inhibition of short-circuit current (human wildtype CFTR [1]) | IC50 (human wildtype CFTR [1]; [4]) | metabolic stability in hepatic microsomes (in words) [2] | inhibition of CFTR chloride conductance (in words) (human wildtype CFTR [1]; short-circuit current) | IC50 (human wildtype CFTR [3]) | IC50 (human wildtype CFTR [1]; [5])
1 | Cn1c(=O)c2c(-c3ccccc3)n3c(c2n(C)c1=O)[C@H](c1ccc(Br)o1)Oc1ccc(C(=O)O)cc1-3 (single isomer, unassigned) [(R)-BPO-27, 6R-(5-Bromofuran-2-yl)-7,9-dimethyl-8,10-dioxo-11-phenyl-7,8,9,10-tetrahydro-6H-benzo[b]pyrimido [4′,5′:3,4]pyrrolo [1,2-d][1,4]oxazine-2-carboxylic acid] | completed inhibited current | 0.004 µM and ~0.004 µM | little metabolism |  |  | 
2 | Cn1c(=O)c2c(-c3ccccc3)n3c(c2n(C)c1=O)[C@@H](c1ccc(Br)o1)Oc1ccc(C(=O)O)cc1-3 (single isomer, unassigned) [(S)-BPO-27, 6S-(5-Bromofuran-2-yl)-7,9-dimethyl-8,10-dioxo-11-phenyl-7,8,9,10-tetrahydro-6H-benzo[b]pyrimido [4′,5′:3,4]pyrrolo [1,2-d][1,4]oxazine-2-carboxylic acid] | no significant inhibition | ~0.004 µM | little metabolism | inactive |  | 
3 | Cn1c(=O)c2c(-c3ccccc3)n3c(c2n(C)c1=O)C(c1ccc(Br)o1)Oc1ccccc1-3 (stereo not shown) [BPO-16, 6-(5-Bromofuran-2-yl)-7,9-dimethyl-11-phenyl-6H-benzo[b]pyrimido[4′,5′-3,4]pyrrolo[1,2-d]oxazine-8,10-(7H,9H)-dione] |  |  | better stability than PPQ-102 |  | 200 nM | 0.09 µM
4 | Cn1c(=O)c2c(-c3ccccc3)n3c(c2n(C)c1=O)C(c1ccc(Br)o1)Oc1ccc([N+](=O)[O-])cc1-3 (stereo not shown) [BPO-21, 6-(5-bromofuran-2-yl)-7,9-Dimethyl-2-nitro-11-phenyl-6H-benzo[b]pyrimido[4′,5′-3,4]pyrrolo[1,2-d]oxazine-8,10-(7H,9H)-dione] |  |  | excellent metabolic stability | substantially greater CFTR inhibition potency | 120 nM | 0.025 µM
5 | Cn1c(=O)c2c(-c3ccccc3)n3c(c2n(C)c1=O)C(c1ccc(Br)o1)Nc1ccccc1-3 (stereo not shown) [PPQ-10, 6-(5-Bromofuran-2-yl)-7,9-dimethyl-11-phenyl-5,6-dihydropyrimido[4′,5′-3,4]pyrrolo[1,2-a]quinoxaline-8,10-(7H,9H)-dione] |  |  | substantially more stable than PPQ-102 |  | 90 nM | 0.05 µM
6 | Cn1c(=O)c2c(-c3ccccc3)n3c(c2n(C)c1=O)C(c1ccc(I)o1)Nc1ccccc1-3 (stereo not shown) [PPQ-11, 7,9-Dimethyl-6-(5-iodofuran-2-yl)-11-phenyl-5,6-dihydropyrimido[4′,5′-3,4]pyrrolo[1,2-a]quinoxaline-8,10-(7H,9H)-dione] |  |  |  |  | 170 nM | 0.1 µM
